# In patent US20210122757A1, “SPIROCYCLIC COMPOUNDS AS MODULATORS OF INDOLEAMINE 2,3-DIOXYGENASE” (PHENEX DISCOVERY VERWALTUNGS-GMBH, priority 2018, published 2021):
# Target: T1, Indoleamine 2,3-dioxygenase (Homo sapiens, UniProt P14902)
# T1 construct: endogenous in cells; host or cells: SKOV-3 (ATCC HTB-77), stimulated with 50 ng/ml interferon gamma
# Assay: SKOV-3 Cellular Indoleamine 2,3-dioxygenase Assay
# Settings: SKOV-3 cells, 50 ng/ml Interferon gamma, 100 μM L-Tryptophan, 24 hours, N-Formylkynurenin fluorescence detection; read-out: cell based activity (IC50)
# Protocol: SKOV-3 Cellular Indoleamine 2,3-dioxygenase Assay
# SKOV-3 cells were obtained from the American Type Culture Collection (ATCC® HTB-77™) and maintained in McCoy's medium (Pan Biotech) supplemented with 10% fetal bovine serum and 1% Penicillin/Streptomycin. Cells were kept at 37° C. in a humidified incubator with 5% CO2. For assay preparation, cells were seeded at a density of 2*10^5/ml into black clear bottom 96 well plates in 100 μl medium/well supplemented with 50 ng/ml Interferon gamma (eBioscience, Thermo Fisher Scientific). After cells fully adhered to the plate, dilution series of compounds were added in medium containing additional L-Tryptophan to a final L-Tryptophan concentration of 100 μM. The cells were incubated for 24 hours. Detection of produced N-Formylkynurenin was performed by addition of 3-Methylpiperidine to a final concentration of 200 mM. The plates were sealed and heated to 65° C. for 20 minutes in a water bath. After cooling the fluorescence of each well was recorded with a Victor™X4 (PerkinElmer) plate reader at an emission wavelength of 535 nm and excitation at 405 nm (Tomek et al.; Anal Bioanal Chem (2013) 405:2515-2524, Tomek et al.; Biochim Biophys Acta. 2015 September; 1850(9):1772-80).
# T1 sequence (P14902 whole entry): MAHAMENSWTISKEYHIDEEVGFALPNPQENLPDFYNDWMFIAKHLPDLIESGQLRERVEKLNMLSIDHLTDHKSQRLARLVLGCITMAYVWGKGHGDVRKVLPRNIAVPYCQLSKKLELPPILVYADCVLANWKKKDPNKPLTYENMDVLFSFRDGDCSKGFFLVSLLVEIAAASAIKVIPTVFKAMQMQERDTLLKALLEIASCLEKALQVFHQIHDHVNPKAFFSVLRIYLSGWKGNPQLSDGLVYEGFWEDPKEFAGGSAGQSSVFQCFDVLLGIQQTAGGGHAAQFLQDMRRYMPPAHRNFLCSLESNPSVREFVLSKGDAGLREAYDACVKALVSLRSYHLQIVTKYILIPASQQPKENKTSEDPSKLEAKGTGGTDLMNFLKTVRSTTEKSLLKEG
structure (smiles),measurement,value
"O=C(C[C@H]1CC[C@@]2(CCc3ccccc32)CC1)Nc1ccc(Cl)cc1 (single isomer, unassigned) [Example 1b, N-(4-chlorophenyl)-2-(2′,3′-dihydrospiro[cyclohexane-1,1′-inden]-4-yl)acetamide]",IC50,≥ 50 nM
"O=C(C[C@H]1CC[C@@]2(CCc3ccccc32)CC1)Nc1ccc(Cl)cc1 (single isomer, unassigned) [Example 1c, N-(4-chlorophenyl)-2-(2′,3′-dihydrospiro[cyclohexane-1,1′-inden]-4-yl)acetamide]",IC50,< 50 nM
"CC(C(=O)Nc1ccc(Cl)cc1)[C@H]1CC[C@@]2(CCc3ccccc32)CC1 (single isomer, unassigned) [Example 2a, N-(4-chlorophenyl)-2-(2′,3′-dihydrospiro[cyclohexane-1,1′-inden]-4-yl)propanamide]",IC50,< 50 nM
"CC(C(=O)Nc1ccc(Cl)cc1)[C@H]1CC[C@@]2(CCc3ccccc32)CC1 (single isomer, unassigned) [Example 2b, N-(4-chlorophenyl)-2-(2′,3′-dihydrospiro[cyclohexane-1,1′-inden]-4-yl)propanamide]",IC50,< 50 nM
"CC(C(=O)Nc1ccc(Cl)cc1)C1CCC2(CC1)COc1ncc(C(F)(F)F)cc12 (single isomer, unassigned) [Example 4b, N-(4-chlorophenyl)-2-(5′-(trifluoromethyl)-2′H-spiro[cyclohexane-1,3′-furo[2,3-b]pyridin]-4-yl)propanamide]",IC50,≥ 50 nM
"CC(C(=O)Nc1ccc(Cl)cc1)C1CCC2(CC1)COc1ncc(C(F)(F)F)cc12 (single isomer, unassigned) [Example 4c, N-(4-chlorophenyl)-2-(5′-(trifluoromethyl)-2′H-spiro[cyclohexane-1,3′-furo[2,3-b]pyridin]-4-yl)propanamide]",IC50,≥ 50 nM
"CC(C(=O)Nc1ccc(Cl)cc1)C1CCC2(CC1)COc1ncc(C(F)(F)F)cc12 (single isomer, unassigned) [Example 4d, N-(4-chlorophenyl)-2-(5′-(trifluoromethyl)-2′H-spiro[cyclohexane-1,3′-furo[2,3-b]pyridin]-4-yl)propanamide]",IC50,≥ 50 nM
"CC(C(=O)Nc1ccc(Cl)cc1)C1CCC2(CC1)COc1ncc(C(F)(F)F)cc12 (single isomer, unassigned) [Example 4e, N-(4-chlorophenyl)-2-(5′-(trifluoromethyl)-2′H-spiro[cyclohexane-1,3′-furo[2,3-b]pyridin]-4-yl)propanamide]",IC50,< 50 nM
"CC(C(=O)Nc1ccc(Cl)cc1)C1CCC2(CC1)COc1nc(C(F)(F)F)ccc12 (single isomer, unassigned) [Example 5b, N-(4-chlorophenyl)-2-(6′-(trifluoromethyl)-2′H-spiro[cyclohexane-1,3′-furo[2,3-b]pyridin]-4-yl)propanamide]",IC50,< 50 nM
"CC(C(=O)Nc1ccc(Cl)cc1)C1CCC2(CC1)COc1nc(C(F)(F)F)ccc12 (single isomer, unassigned) [Example 5c, N-(4-chlorophenyl)-2-(6′-(trifluoromethyl)-2′H-spiro[cyclohexane-1,3′-furo[2,3-b]pyridin]-4-yl)propanamide]",IC50,< 50 nM
"CC(C(=O)Nc1ccc(Cl)cc1)C1CCC2(CC1)COc1nc(C(F)(F)F)ccc12 (single isomer, unassigned) [Example 5d, N-(4-chlorophenyl)-2-(6′-(trifluoromethyl)-2′H-spiro[cyclohexane-1,3′-furo[2,3-b]pyridin]-4-yl)propanamide]",IC50,≥ 50 nM
"CC(C(=O)Nc1ccc(Cl)cc1)C1CCC2(CC1)COc1nc(C(F)(F)F)ccc12 (single isomer, unassigned) [Example 5e, N-(4-chlorophenyl)-2-(6′-(trifluoromethyl)-2′H-spiro[cyclohexane-1,3′-furo[2,3-b]pyridin]-4-yl)propanamide]",IC50,< 50 nM
"CC(C(=O)Nc1ccc(Cl)cc1)C1CCC2(CC1)c1ccc(C(F)(F)F)cc1C(=O)N2C (single isomer, unassigned) [Example 6b, N-(4-Chlorophenyl)-2-(2′-methyl-3′-oxo-5′-(trifluoromethyl)spiro[cyclohexane-1,1′-isoindolin]-4-yl)propanamide]",IC50,≥ 50 nM
"CC(C(=O)Nc1ccc(Cl)cc1)C1CCC2(CC1)c1ccc(C(F)(F)F)cc1C(=O)N2C (single isomer, unassigned) [Example 6c, N-(4-Chlorophenyl)-2-(2′-methyl-3′-oxo-5′-(trifluoromethyl)spiro[cyclohexane-1,1′-isoindolin]-4-yl)propanamide]",IC50,< 50 nM
"CC(C(=O)Nc1ccc(Cl)cc1)C1CCC2(CC1)c1ccc(C(F)(F)F)cc1C(=O)N2C (single isomer, unassigned) [Example 6d, N-(4-Chlorophenyl)-2-(2′-methyl-3′-oxo-5′-(trifluoromethyl)spiro[cyclohexane-1,1′-isoindolin]-4-yl)propanamide]",IC50,≥ 50 nM
"CC(C(=O)Nc1ccc(Cl)cc1)C1CCC2(CC1)c1ccc(C(F)(F)F)cc1C(=O)N2C (single isomer, unassigned) [Example 6e, N-(4-Chlorophenyl)-2-(2′-methyl-3′-oxo-5′-(trifluoromethyl)spiro[cyclohexane-1,1′-isoindolin]-4-yl)propanamide]",IC50,≥ 50 nM
"CC(C(=O)Nc1ccc(Cl)cc1F)C1CCC2(CC1)COc1cc(C(F)(F)F)ccc12 (single isomer, unassigned) [Example 7b, N-(4-Chloro-2-fluorophenyl)-2-(6-(trifluoromethyl)-2H-spiro[benzofuran-3,1′-cyclohexan]-4′-yl)propanamide]",IC50,< 50 nM
"CC(C(=O)Nc1ccc(Cl)cc1F)C1CCC2(CC1)COc1cc(C(F)(F)F)ccc12 (single isomer, unassigned) [Example 7c, N-(4-Chloro-2-fluorophenyl)-2-(6-(trifluoromethyl)-2H-spiro[benzofuran-3,1′-cyclohexan]-4′-yl)propanamide]",IC50,< 50 nM
"CC(C(=O)Nc1ccc(Cl)cc1F)C1CCC2(CC1)COc1cc(C(F)(F)F)ccc12 (single isomer, unassigned) [Example 7d, N-(4-Chloro-2-fluorophenyl)-2-(6-(trifluoromethyl)-2H-spiro[benzofuran-3,1′-cyclohexan]-4′-yl)propanamide]",IC50,< 50 nM
"CC(C(=O)Nc1ccc(Cl)cc1F)C1CCC2(CC1)COc1cc(C(F)(F)F)ccc12 (single isomer, unassigned) [Example 7e, N-(4-Chloro-2-fluorophenyl)-2-(6-(trifluoromethyl)-2H-spiro[benzofuran-3,1′-cyclohexan]-4′-yl)propanamide]",IC50,≥ 50 nM
"Cc1ccc(NC(=O)C(C)C2CCC3(CC2)COc2cc(C(F)(F)F)ccc23)cc1 (single isomer, unassigned) [Example 8b, N-(p-Tolyl)-2-(6-(trifluoromethyl)-2H-spiro[benzofuran-3,1′-cyclohexan]-4′-yl)propanamide]",IC50,< 50 nM
"Cc1ccc(NC(=O)C(C)C2CCC3(CC2)COc2cc(C(F)(F)F)ccc23)cc1 (single isomer, unassigned) [Example 8c, N-(p-Tolyl)-2-(6-(trifluoromethyl)-2H-spiro[benzofuran-3,1′-cyclohexan]-4′-yl)propanamide]",IC50,< 50 nM
"Cc1ccc(NC(=O)C(C)C2CCC3(CC2)COc2cc(C(F)(F)F)ccc23)cc1 (single isomer, unassigned) [Example 8d, N-(p-Tolyl)-2-(6-(trifluoromethyl)-2H-spiro[benzofuran-3,1′-cyclohexan]-4′-yl)propanamide]",IC50,< 50 nM
"Cc1ccc(NC(=O)C(C)C2CCC3(CC2)COc2cc(C(F)(F)F)ccc23)cc1 (single isomer, unassigned) [Example 8e, N-(p-Tolyl)-2-(6-(trifluoromethyl)-2H-spiro[benzofuran-3,1′-cyclohexan]-4′-yl)propanamide]",IC50,≥ 50 nM
"CC1CCC(NC(=O)C(C)C2CCC3(CC2)COc2cc(C(F)(F)F)ccc23)CC1 (single isomer, unassigned) [Example 9b, N-((1r,4r)-4-Methylcyclohexyl)-2-(6-(trifluoromethyl)-2H-spiro[benzofuran-3,1′-cyclohexan]-4′-yl)propanamide]",IC50,≥ 50 nM
"CC1CCC(NC(=O)C(C)C2CCC3(CC2)COc2cc(C(F)(F)F)ccc23)CC1 (single isomer, unassigned) [Example 9c, N-((1r,4r)-4-Methylcyclohexyl)-2-(6-(trifluoromethyl)-2H-spiro[benzofuran-3,1′-cyclohexan]-4′-yl)propanamide]",IC50,≥ 50 nM
"CC1CCC(NC(=O)C(C)C2CCC3(CC2)COc2cc(C(F)(F)F)ccc23)CC1 (single isomer, unassigned) [Example 9d, N-((1r,4r)-4-Methylcyclohexyl)-2-(6-(trifluoromethyl)-2H-spiro[benzofuran-3,1′-cyclohexan]-4′-yl)propanamide]",IC50,≥ 50 nM
"CC1CCC(NC(=O)C(C)C2CCC3(CC2)COc2cc(C(F)(F)F)ccc23)CC1 (single isomer, unassigned) [Example 9e, N-((1r,4r)-4-Methylcyclohexyl)-2-(6-(trifluoromethyl)-2H-spiro[benzofuran-3,1′-cyclohexan]-4′-yl)propanamide]",IC50,< 50 nM
